# Laboratory results: patent publication US10568344B2, “Methods of improving animal performance” (Novozymes A/S, priority 2015, dated 2020)
# Like-named read-outs stand apart in the source and are kept apart here. Marks after values point to notes of the source that are not given here.
# Legend:
# [1] = In vivo broiler trial 1, growth performance; set-up: species or system male broiler chickens (ROSS PM3); details: for Improvement of FCR compared to the control diet / Improvement of weight gain compared to the control diet: 10 mg/kg; for FCR / FCR, Relative to C (%) / Feed intake / Feed intake, Relative to C (%) / Weight gain / Weight gain, Relative to C (%): 10 mg/kg feed
# [2] = In vivo broiler trial 2, growth performance; set-up: species or system male broiler chickens; details: for FCR / FCR, Relative to C (%) / Feed intake / Feed intake, Relative to C (%) / Weight gain / Weight gain, Relative to C (%): 10 mg/kg feed; for Improvement of FCR compared to the control diet / Improvement of weight gain compared to the control diet: 10 mg/kg
# Method: No additional enzymes (e.g. phytase) were added to the feed. The experimental diets (Starter and Grower) were based on soybean meal, wheat and rye (12%) as main ingredients (Table 6). The diets were formulated to contain 222 g crude protein and 12.5 MJ/kg MEN for the starter period and 204 g crude protein and 12.7 MJ/kg MEN for the grower period.
# [3] = In vivo broiler trial 3, growth performance; set-up: species or system male broiler chickens; Motality: unit not given here
# Method: The in vivo trial was carried out as described in example 7, except the feed was supplemented with the GH25 lysozyme (SEQ ID NO: 1) at 12.5 or 25 mg per kg feed, the GH24 lysozyme (SEQ ID NO: 4) at 12.5 or 25 mg per kg feed or with Avilamycin at an inclusion level of 10 mg/kg. No additional enzymes (e.g. phytase) were added to the feed. The experimental diets (Starter, Grower and Finisher) were based on soybean meal, wheat and rye (12%) as main ingredients (Table 8). The diets were formulated to contain 225 g crude protein and 12.5 MJ/kg MEN for the starter period, 215 g crude protein and 12.8 MJ/kg MEN for the grower period and 205 g crude protein and 13.0 MJ/kg MEN for the finisher period.
# [4] = In vivo piglet trial, growth performance; set-up: species or system weaned piglets
# Method: The trial was performed from Oct. 23 to Dec. 4, 2014 at the Research Center for Animal Nutrition (DSM Nutritional Products France, F-68305 Village-Neuf) according to the official French guidelines for experiments with live animals. One hundred and four castrated male crossbred (Large-White (female)×Redon (male)) weaned piglets having 28 days of age supplied by the commercial farm “[…] du Rhin” located in Balgau (France), were used in a 42-day experiment. The initial bodyweight of the piglets was 7.88±0.675 kg. They were sorted by body weight into 32 groups of 3 or 4 piglets and randomly allotted to each dietary treatment. Each group of animals was placed in one flat-deck cages and allocated to one of the different treatments. Each treatment was replicated with 8 cages using a total of 26 animals (6 cages of 3 animals/treatment and 2 cages of 4 animals/treatment) per treatment. […] Animals were housed in an environmentally controlled room. Room temperature was initially 27° C. and was lowered weekly by about 2° C. until 21-22° C. and relative humidity percentage was 50%. The experimental diets (Pre-Starter and Starter) were fed ad libitum in two feeding phases from day 0 to 14 (phase 1, Pre-starter) and day 14 to 42 (phase 2, Starter). The ingredient composition and the calculated nutrient levels of the experimental diets for phases 1 and 2 are presented in table 11. Both diets were formulated to meet the animals' requirements according NRC (2012) and were fed in pelleted form. Pelleting conditions were at 70° C. for 30 seconds. […] No additional enzymes (e.g. phytase) were added to the feed. […] Appropriate amount of the liquid preparations of lysozyme was diluted in water and sprayed onto the respective pelleted feed to get the final concentrations in the feed corresponding to the different treatments. For procedural balance of all treatments the same volume of water were also sprayed onto the pellets of the control diets. Body weight of the individual animals and feed consumption per pen were recorded on days 14 and 42 of the study. […] The experimental unit was the piglet, except for ADFI and FCR which were measured by cage, and in both cases, treatment was used as class variable. One-factorial ANOVA and Student-Newman-Keuls test was used to assess differences among means in treatment groups.
# [5] = tested on: Clostridium perfringens DSM756; format: cell-based; details: for Diameter of clearing zone: lysozymes 100 μg/ml, bacitracin 50 μg/ml
# [6] = tested on: Exiguobacterium undae (DSM14481); assay: Lysozyme activity turbidity assay (optical density drop); format: biochemical; details: pH 6
# [7] = tested on: Micrococcus lysodeikticus ATTC No. 4698; assay: as above; details: pH 6
# [8] = Finisher (d 36-42), 10 mg/kg feed
# [9] = Grower (d 22-36), 10 mg/kg feed
# [10] = Starter (d 1-22), 10 mg/kg feed
# [11] = Whole period (d 1-42), 10 mg/kg feed
molecule,measurement,setting,value
"COC[C@H]1O[C@@H](OC2OC[C@@H]3O[C@]4(O[C@H]3[C@H]2OC(=O)C(C)C)O[C@H](C)[C@@](O)(C(C)=O)[C@@H]2OCO[C@H]24)[C@@H](OC)[C@@H](O)[C@@H]1O[C@@H]1O[C@H](C)[C@H](OC)[C@H](O[C@H]2C[C@@]3(C)OC4(C[C@@H](O)[C@H](O[C@H]5C[C@@H](O)[C@H](OC(=O)c6c(C)c(Cl)c(O)c(Cl)c6OC)[C@@H](C)O5)[C@@H](C)O4)O[C@@H]3[C@@H](C)O2)[C@H]1O (stereo partly drawn) [Avilamycin, reference compound]",Improvement of FCR compared to the control diet,[1],2.3%
same,FCR,[1]; Grower (d 22-36),1.694^abc
same,"FCR, Relative to C (%)",[1]; Grower (d 22-36),97.7%
same,Feed intake,[1]; Grower (d 22-36),2976^ab g/b
same,"Feed intake, Relative to C (%)",[1]; Grower (d 22-36),97.6%
same,Weight gain,[1]; Grower (d 22-36),1757 g/b
same,"Weight gain, Relative to C (%)",[1]; Grower (d 22-36),99.8%
same,FCR,[1]; Starter (d 1-22),1.695^c
same,"FCR, Relative to C (%)",[1]; Starter (d 1-22),93.3%
same,Feed intake,[1]; Starter (d 1-22),1943 g/b
same,"Feed intake, Relative to C (%)",[1]; Starter (d 1-22),97.4%
same,Weight gain,[1]; Starter (d 1-22),1147 g/b
same,"Weight gain, Relative to C (%)",[1]; Starter (d 1-22),104.1%
same,FCR,[1]; Whole period (d 1-36),1.694^bc
same,"FCR, Relative to C (%)",[1]; Whole period (d 1-36),96%
same,Feed intake,[1]; Whole period (d 1-36),4918^ab g/b
same,"Feed intake, Relative to C (%)",[1]; Whole period (d 1-36),97.5%
same,Weight gain,[1]; Whole period (d 1-36),2903 g/b
same,"Weight gain, Relative to C (%)",[1]; Whole period (d 1-36),101.5%
same,Improvement of FCR compared to the control diet,[1]; day 1 to day 36,4%
same,Improvement of weight gain compared to the control diet,[1]; day 1 to day 36,1.5%
same,Improvement of weight gain compared to the control diet,[1]; starter period,4.1%
same,FCR,[2]; Grower (d 22-36),1.621^b
same,"FCR, Relative to C (%)",[2]; Grower (d 22-36),94.2%
same,Feed intake,[2]; Grower (d 22-36),2599 g/b
same,"Feed intake, Relative to C (%)",[2]; Grower (d 22-36),95.2%
same,Weight gain,[2]; Grower (d 22-36),1605 g/b
same,"Weight gain, Relative to C (%)",[2]; Grower (d 22-36),101.2%
same,FCR,[2]; Starter (d 1-22),1.421^a
same,"FCR, Relative to C (%)",[2]; Starter (d 1-22),103%
same,Feed intake,[2]; Starter (d 1-22),1517^a g/b
same,"Feed intake, Relative to C (%)",[2]; Starter (d 1-22),103.1%
same,Weight gain,[2]; Starter (d 1-22),1070 g/b
same,"Weight gain, Relative to C (%)",[2]; Starter (d 1-22),100.2%
same,FCR,[2]; Whole period (d 1-36),1.537^c
same,"FCR, Relative to C (%)",[2]; Whole period (d 1-36),97.4%
same,Feed intake,[2]; Whole period (d 1-36),4111 g/b
same,"Feed intake, Relative to C (%)",[2]; Whole period (d 1-36),98.1%
same,Weight gain,[2]; Whole period (d 1-36),2675 g/b
same,"Weight gain, Relative to C (%)",[2]; Whole period (d 1-36),100.8%
same,Improvement of FCR compared to the control diet,[2]; day 1 to day 36,2.6%
same,Improvement of FCR compared to the control diet,[2]; grower period,5.8%
same,Improvement of weight gain compared to the control diet,[2]; grower period,1.2%
same,Improvement of FCR compared to the control diet,[2]; starter period,No improvement
same,Improvement of weight gain compared to the control diet,[2]; starter period,No improvement
same,FCR,[3]; [8],1.982
same,"FCR, Relative to C (%)",[3]; [8],101.1%
same,Feed intake,[3]; [8],1460 g/b
same,"Feed intake, Relative to C (%)",[3]; [8],98.2%
same,Weight gain,[3]; [8],738 g/b
same,"Weight gain, Relative to C (%)",[3]; [8],97.0%
same,FCR,[3]; [9],1.683
same,"FCR, Relative to C (%)",[3]; [9],97.7%
same,Feed intake,[3]; [9],2242 g/b
same,"Feed intake, Relative to C (%)",[3]; [9],98.1%
same,Weight gain,[3]; [9],1334 g/b
same,"Weight gain, Relative to C (%)",[3]; [9],100.4%
same,FCR,[3]; [10],1.452
same,"FCR, Relative to C (%)",[3]; [10],100.8%
same,Feed intake,[3]; [10],1593 g/b
same,"Feed intake, Relative to C (%)",[3]; [10],101.0%
same,Weight gain,[3]; [10],1102 g/b
same,"Weight gain, Relative to C (%)",[3]; [10],100.6%
same,EPEF,[3]; [11],397
same,"EPEF, Relative to C (%)",[3]; [11],95.0%
same,FCR,[3]; [11],1.669
same,"FCR, Relative to C (%)",[3]; [11],99.3%
same,Feed intake,[3]; [11],5312 g/b
same,"Feed intake, Relative to C (%)",[3]; [11],99.3%
same,Motality,[3]; [11],12.5
same,Weight gain,[3]; [11],3184 g/b
same,"Weight gain, Relative to C (%)",[3]; [11],99.9%
same,EPEF worse than NC diet by,"[3]; whole period, 10 mg/kg",5.0%
same,FCR improvement compared to NC diet,"[3]; whole period, 10 mg/kg",0.7%
"O=C(O)c1ccccc1 [VevoVital, benzoic acid]","ADFI, % relative NC","[4]; day 0-14, 5000 mg/kg feed",98.6%
same,"ADFI, Mean","[4]; day 0-14, 5000 mg/kg feed",355 g/day
same,"ADWG, % relative NC","[4]; day 0-14, 5000 mg/kg feed",104.8%
same,"ADWG, Mean","[4]; day 0-14, 5000 mg/kg feed",304 g/day
same,"FCR, % relative NC","[4]; day 0-14, 5000 mg/kg feed",94.2%
same,"FCR, Mean","[4]; day 0-14, 5000 mg/kg feed",1.168^a
same,"ADFI, % relative NC","[4]; day 0-42, 5000 mg/kg feed",96.6%
same,"ADFI, Mean","[4]; day 0-42, 5000 mg/kg feed",709^ab g/d
same,"ADWG, % relative NC","[4]; day 0-42, 5000 mg/kg feed",105.4%
same,"ADWG, Mean","[4]; day 0-42, 5000 mg/kg feed",526 g/day
same,"EPEF, % relative NC","[4]; day 0-42, 5000 mg/kg feed",116.2%
same,"EPEF, Mean","[4]; day 0-42, 5000 mg/kg feed",394
same,"FCR, % relative NC","[4]; day 0-42, 5000 mg/kg feed",90.4%
same,"FCR, Mean","[4]; day 0-42, 5000 mg/kg feed",1.342^a
same,"ADFI, % relative NC","[4]; day 14-42, 5000 mg/kg feed",95.3%
same,"ADFI, Mean","[4]; day 14-42, 5000 mg/kg feed",886^ab g/d
same,"ADWG, % relative NC","[4]; day 14-42, 5000 mg/kg feed",105.8%
same,"ADWG, Mean","[4]; day 14-42, 5000 mg/kg feed",638 g/day
same,"FCR, % relative NC","[4]; day 14-42, 5000 mg/kg feed",90.5%
same,"FCR, Mean","[4]; day 14-42, 5000 mg/kg feed",1.398^a
same,Improvement on FCR compared to the negative control,"[4]; overall period (day 0 to day 42), 5000 mg/kg",9.6%
same,Improvement of ADWG compared to NC,"[4]; pre-starter period, 5000 mg/kg",4.8%
same,Improvement to FCR compared to NC,"[4]; starter period, day 15 to day 42, 5000 mg/kg",9.5%
same,Improvement of ADWG compared to NC,"[4]; starter period, 5000 mg/kg",5.8%
same,Improvement of ADWG compared to NC,"[4]; whole period, 5000 mg/kg",5.4%
Bacitracin zinc salt [reference compound],Diameter of clearing zone,"[5]; Experiment 1, 1/2 MHB pH 6",13 mm
same,Diameter of clearing zone,"[5]; Experiment 1, 1/10 MHB pH 7",23 mm
same,Diameter of clearing zone,"[5]; Experiment 2, 1/2 MHB pH 6",11 mm
same,Diameter of clearing zone,"[5]; Experiment 2, 1/10 MHB pH 7",20 mm
"SEQ ID NO: 5: mature amino acid sequence of a wild type GH22 lysozyme from Gallus gallus (hen egg white lysozyme), Sigma 62971 [reference compound]",Lysozyme activity as measured by Optical Density Drop,[6],+ (pH 6)
same,Lysozyme activity as measured by Optical Density Drop,[7],+++ (pH 6)
same,Inhibition zone,"[5]; 1/10 MHB, pH7, both experiments",9-11 mm
same,Diameter of clearing zone,"[5]; Experiment 1, 1/2 MHB pH 6",0 mm
same,Diameter of clearing zone,"[5]; Experiment 1, 1/10 MHB pH 7",11 mm
same,Diameter of clearing zone,"[5]; Experiment 2, 1/2 MHB pH 6",0 mm
same,Diameter of clearing zone,"[5]; Experiment 2, 1/10 MHB pH 7",9 mm
same,Clearing zone diameter,"[5]; ½ MHB, pH 6, both experiments",no zone of inhibition
